The text below walks through data of patent EP4603105A1, “PHARMACEUTICAL COMPOSITION CONTAINING CYCLIC COMPOUND HAVING SELECTIVE KRAS INHIBITORY EFFECT AGAINST HRAS AND NRAS” (CHUGAI SEIYAKU KABUSHIKI KAISHA, priority 2022, dated 2024).

Like-named read-outs stand apart in the source and are kept apart here.

One assay has as its target HRAS wild-type protein (Homo sapiens, UniProt P01112). Nature of the assay: Binding to HRAS by surface plasmon resonance (SPR), KD and KD ratio to KRAS. In outline:
(§1)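 Biotinylated GDP-bound RAS was captured at about 100–300 RU. Running buffer: HBS pH 7.4, 10 mM MgCl2, 10 µM GDP, 1 mM DTT, 0.01% Tween 20, 4% DMSO.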

For assay [1], the system named is human lung cancer strain NCI-H441. Nature of the assay: NCI-H441 cell proliferation inhibitory activity (CellTiter-Glo, 4 days). The settings on record: read-out: NCl-H441 IC50. Type of assay: cell-based. In outline:
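Step one: dispense the test compound in serial DMSO dilutions. Step three: add the reagent and measure […].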
(In general: ATP-based viability assays read luminescence as a measure of living cells.)

Assay [2] concerns the target GDP-bound KRAS wild-type protein (Homo sapiens, UniProt P01116). Nature of the assay: Binding to KRAS by surface plasmon resonance (SPR), dissociation constant KD. In outline:
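GDP-bound biotin-Avi RAS captured at ~100–300 RU, 30°C, pH 7.4 HBS containing 10 µM GDP, 10 mM MgCl2, 1 mM DTT, 0.01% Tween 20 and 4% DMSO. KD by 1:1 fitting.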
(Surface plasmon resonance follows binding to a sensor surface in real time, without labels.)

For assay [3], the target named is GDP-bound NRAS wild-type protein (Homo sapiens, UniProt P01111). Nature of the assay: Binding to NRAS by surface plasmon resonance (SPR), KD and KD ratio to KRAS. In outline: as §1
The mark [4] stands for this setting: ratio of KD for HRAS wild-type protein to KD for KRAS.
Where [5] appears, read: ratio of KD for GDP-bound NRAS wild-type protein to KD for KRAS.
[6] abbreviates: ratio of KD with respect to HRAS wild-type protein to KD with respect to KRAS.
Where [7] appears, read: 50% proliferation inhibitory concentration, four days.
[8] abbreviates: Single Cycle Kinetics, 1:1 binding model.
Where [9] appears, read: ratio of KD with respect to GDP-bound NRAS wild-type protein to KD with respect to KRAS.

Chain of HRAS wild-type protein (P01112 whole entry): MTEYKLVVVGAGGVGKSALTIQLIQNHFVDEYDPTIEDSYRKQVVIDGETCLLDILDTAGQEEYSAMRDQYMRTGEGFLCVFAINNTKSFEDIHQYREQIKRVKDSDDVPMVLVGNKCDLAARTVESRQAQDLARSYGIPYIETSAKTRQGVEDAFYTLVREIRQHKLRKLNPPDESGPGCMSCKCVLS
Chain of GDP-bound NRAS wild-type protein (P01111 whole entry): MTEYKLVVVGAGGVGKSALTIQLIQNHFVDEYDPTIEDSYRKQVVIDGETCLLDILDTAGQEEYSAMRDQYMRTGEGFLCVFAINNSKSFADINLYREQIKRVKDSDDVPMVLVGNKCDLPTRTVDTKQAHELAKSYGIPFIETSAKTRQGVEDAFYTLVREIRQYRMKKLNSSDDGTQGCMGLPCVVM
Chain of GDP-bound KRAS wild-type protein (P01116 1-188 isoform P01116-2): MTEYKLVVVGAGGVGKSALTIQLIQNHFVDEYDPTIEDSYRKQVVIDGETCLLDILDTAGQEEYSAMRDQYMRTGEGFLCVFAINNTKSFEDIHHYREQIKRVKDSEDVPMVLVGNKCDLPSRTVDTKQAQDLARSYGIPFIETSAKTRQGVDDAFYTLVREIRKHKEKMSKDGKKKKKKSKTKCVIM

For the compound `CCO[C@@H]1C[C@H]2C(=O)NC3(CCCC3)C(=O)N(C)[C@@H](C3CCCC3)C(=O)N(C)[C@H](C(=O)N(C)C)CC(=O)N(C)[C@@H]([C@@H](C)OC)C(=O)N[C@@H]([C@@H](C)CC)C(=O)N3CCC[C@H]3C(=O)N(C)[C@H]3C/C=C\CCN(C3=O)[C@@H](Cc3ccc(C(F)(F)F)cc3)C(=O)N(C)CC(=O)N[C@@H](CCc3cc(F)c(C(F)(F)F)c(F)c3)C(=O)N2C1` [PP3477], the “HRAS /KRAS” value at HRAS wild-type protein (setting [4]) was “A (a compound having 10 or more and less than 20 is denoted as A)”. Besides, the IC50 (as a rule, the concentration that gives 50% inhibition) in assay [1] (NCI-H441 cells, 4 days) is 44.7 nM. Also, the affinity in assay [2] (Single Cycle Kinetics), expressed as Kd, was 0.51 nM. For the same compound, the “NRAS /KRAS” value in assay [3] (setting [5]) was “A (a compound having 10 or more and less than 20 is denoted as A)”.
With `CCO[C@@H]1C[C@H]2C(=O)NC3(CCC3)C(=O)N(C)[C@@H](C3CCCC3)C(=O)N(C)[C@H](C(=O)N3CCCC3)CC(=O)N(C)[C@@H](CC3CC3)C(=O)N[C@@H]([C@@H](C)CC)C(=O)N(C)CC(=O)N(C)[C@H]3C/C=C\CCN(C3=O)[C@@H](Cc3ccc(C(F)(F)F)cc3)C(=O)N(C)CC(=O)N[C@@H](CCc3cc(F)c(C(F)(F)F)c(F)c3)C(=O)N2C1` [PP1296], at HRAS wild-type protein (setting [6]), the “HRAS /KRAS” value is “A (a compound having 10 or more and less than 20 is denoted as A)”. Moreover, in assay [1] (setting [7]), the 50% inhibitory concentration (IC50) was 14.7 nM. In addition, binding in assay [2] (setting [8]) was put at a Kd of 0.12 nM. Further, the “NRAS /KRAS” value in assay [3] (setting [9]) is “AA (a compound having 20 or more is denoted as AA)”.
For `CCO[C@@H]1C[C@H]2C(=O)NC3(CCCC3)C(=O)N(C)[C@@H](C3CCCC3)C(=O)N(C)[C@H](C(=O)N(C)C)CC(=O)N(C)[C@@H](CC)C(=O)N[C@@H]([C@@H](C)CC)C(=O)N(C)CC(=O)N(C)[C@H]3CC[C@@H](C)CN(C3=O)[C@@H](Cc3ccc(C(F)(F)F)cc3)C(=O)N(C)CC(=O)N[C@@H](CCc3cc(F)c(C(F)(F)F)c(F)c3)C(=O)N2C1` [PP1370], the “HRAS /KRAS” value at HRAS wild-type protein (setting [6]) is “C (A compound having a KD ratio of 0.1 or more and less than 3 is denoted as C)”. The 50% inhibitory concentration (IC50) in assay [1] (setting [7]) was determined as 2.3 nM. In addition, in assay [2] (setting [8]), the dissociation constant (Kd) – broadly, the free concentration of one partner at which half of the binding sites on the other are occupied at equilibrium, for simple one-to-one binding – came out at 0.057 nM. In assay [3] (setting [9]), the “NRAS /KRAS” value was “C (A compound having a KD ratio of 0.1 or more and less than 3 is denoted as C)”.
`CCO[C@@H]1C[C@H]2C(=O)NC3(CCC3)C(=O)N(C)[C@@H](C3CCCC3)C(=O)N(C)[C@H](C(=O)N3CCCC3)CC(=O)N(C)[C@@H](CC3CCCC3)C(=O)N[C@@H]([C@@H](C)CC)C(=O)N(C)CC(=O)N(C)[C@H]3C/C=C\CCN(C3=O)[C@@H](Cc3ccc(F)cc3)C(=O)N(C)CC(=O)N[C@@H](CCc3ccc4sccc4c3)C(=O)N2C1` [PP1391]: the “HRAS /KRAS” value on HRAS wild-type protein (setting [6]) was “A (a compound having 10 or more and less than 20 is denoted as A)”. In assay [1] (setting [7]), the IC50 is 271 nM. The same compound showed a Kd in assay [2] (setting [8]) of 1.6 nM. For the same compound, the “NRAS /KRAS” value in assay [3] (setting [9]) was “A (a compound having 10 or more and less than 20 is denoted as A)”.
Turning to `CCOC[C@H]1C(=O)N[C@@H]([C@@H](C)CC)C(=O)N(C2CC2)CC(=O)N(C)[C@H]2C/C=C\CCN(C2=O)[C@@H](Cc2ccc(C)cc2)C(=O)N(C)CC(=O)N[C@@H](CCc2ccc(Cl)c(Cl)c2)C(=O)N2C[C@H](OCC)C[C@H]2C(=O)NC2(CC(C)(C)C2)C(=O)N(C)[C@@H](CC2CCC2)C(=O)N(C)[C@H](C(=O)N(C)C)CC(=O)N1C` [PP2762], the “HRAS /KRAS” value at HRAS wild-type protein (setting [4]) was “A (a compound having 10 or more and less than 20 is denoted as A)”. Moreover, in assay [1] (NCI-H441 cells, 4 days), the IC50 was 122 nM. This compound registered a Kd in assay [2] (1:1 binding model) of 2.9 nM. In assay [3] (setting [5]), the “NRAS /KRAS” value was “A (a compound having 10 or more and less than 20 is denoted as A)”.
Consider `CCO[C@@H]1C[C@H]2C(=O)NC3(CCC3)C(=O)N(C)[C@@H](C(CC)CC)C(=O)N(C)[C@H](C(=O)N(C)C)CC(=O)N(C)[C@@H](CC3CC3)C(=O)N[C@@H]([C@@H](C)CC)C(=O)N(C)CC(=O)N(C)[C@H]3C/C=C\CCN(C3=O)[C@@H](Cc3ccc(C(F)(F)F)cc3)C(=O)N(C)CC(=O)N[C@@H](CCc3ccc(Cl)c(Cl)c3)C(=O)N2C1` [PP1219], for which the “HRAS /KRAS” value at HRAS wild-type protein (setting [6]) is “A (a compound having 10 or more and less than 20 is denoted as A)”. Moreover, the IC50 in assay [1] (setting [7]) came out at 21.4 nM. In addition, the Kd in assay [2] (setting [8]) was determined as 0.35 nM. Moreover, the “NRAS /KRAS” value in assay [3] (setting [9]) is “AA (a compound having 20 or more is denoted as AA)”.
